Experimental data as given in US20120029187A1, “HALOALKYLSULFONANILIDE DERIVATIVE” (Nissan Chemical Industries, Ltd., priority 2009, published 2012).

Experiments:
Assay type in all cases: in vivo
bulrush [1] = assay: Test Example 2: herbicidal effects during the vegetation period under submerged conditions; settings: treatment during the vegetation period under submerged conditions; dose 2.52 g/a
Summary of the method: (§1)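 Barnyardgrass, bulrush and ducksalad were co-sown in alluvial soil flooded to 4 cm and grown in a greenhouse at 25 to 30° C. At the 1- or 2-leaf stage, water-diluted emulsifiable concentrates went onto the water surface at set doses (g/a). Herbicidal effect was scored three weeks later on a graded scale.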

ducksalad [2] = assay: as above; settings: treatment during the vegetation period under submerged conditions; dose 2.52 g/a
Summary of the method: as §1

barnyardgrass [3] = assay: as above; settings: treatment during the vegetation period under submerged conditions; dose 2.52 g/a
Summary of the method: as §1

posumbu knotweed [4] = assay: Test Example 3: herbicidal effects in soil treatment; settings: dose 3.2 g/a
Summary of the method: (§2)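 Seeds were sown in sterilized diluvial soil and covered with about 1.5 cm of soil. Compounds, formulated as emulsifiable concentrates and diluted with water, were sprayed evenly over the soil surface at set doses in g/a. Herbicidal effect was scored on a rating scale three weeks later.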

Italian ryegrass [5] = assay: as above; settings: dose 3.2 g/a
Summary of the method: as §2

giant foxtail [6] = assay: as above; settings: dose 3.2 g/a
Summary of the method: as §2

common ragweed [7] = assay: as above; settings: dose 3.2 g/a
Summary of the method: as §2

common lambsquater [8] = assay: as above; settings: dose 3.2 g/a
Summary of the method: as §2

barnyardgrass [9] = assay: as above; settings: dose 3.2 g/a
Summary of the method: as §2

water foxtail [10] = assay: as above; settings: dose 3.2 g/a
Summary of the method: as §2

common chickweed [11] = assay: as above; settings: dose 3.2 g/a
Summary of the method: as §2

redroot pigweed [12] = assay: as above; settings: dose 3.2 g/a
Summary of the method: as §2

large crabgrass [13] = assay: as above; settings: dose 3.2 g/a
Summary of the method: as §2

velvetleaf [14] = assay: as above; settings: dose 3.2 g/a
Summary of the method: as §2

bulrush [15] = assay: Test Example 1: herbicidal effects in preemergence treatment under submerged conditions; settings: dose 2.52 g/a
Summary of the method: (§3)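 Flooded-paddy preemergence assay; EC diluted with water, surface-applied at weed seeding; doses g/a; rice transplanted at 2.5 leaves; 0–5 mortality score after 3 weeks.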

ducksalad [16] = assay: as above; settings: dose 2.52 g/a
Summary of the method: as §3

barnyardgrass [17] = assay: as above; settings: dose 2.52 g/a
Summary of the method: as §3

transplanted rice = assay: Test Example 1: preemergence treatment under submerged conditions, effect on crop; settings: dose 2.52 g/a
Summary of the method: as §3

posumbu knotweed [18] = assay: Test Example 4: herbicidal effect in foliage treatment; settings: dose 3.2 g/a
Summary of the method: (§4)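 Post-emergence foliar spray of water-diluted emulsifiable concentrate at predetermined doses (g per are), applied to plants 14 days after sowing in sterile diluvial soil (greenhouse, 25 to 30° C). Visual scale rating of effect taken 3 weeks later.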

Italian ryegrass [19] = assay: as above; settings: dose 3.2 g/a
Summary of the method: as §4

giant foxtail [20] = assay: as above; settings: dose 3.2 g/a
Summary of the method: as §4

common ragweed [21] = assay: as above; settings: dose 3.2 g/a
Summary of the method: as §4

common lambsquater [22] = assay: as above; settings: dose 3.2 g/a
Summary of the method: as §4

barnyardgrass [23] = assay: as above; settings: dose 3.2 g/a
Summary of the method: as §4

water foxtail [24] = assay: as above; settings: dose 3.2 g/a
Summary of the method: as §4

common chickweed [25] = assay: as above; settings: dose 3.2 g/a
Summary of the method: as §4

redroot pigweed [26] = assay: as above; settings: dose 3.2 g/a
Summary of the method: as §4

beadstraw = assay: as above; settings: dose 3.2 g/a
Summary of the method: as §4

large crabgrass [27] = assay: as above; settings: dose 3.2 g/a
Summary of the method: as §4

velvetleaf [28] = assay: as above; settings: dose 3.2 g/a
Summary of the method: as §4

[29] = three weeks after the application

SMILES: COCC1(C)CC(=O)N(Cc2ccccc2NS(=O)(=O)C(F)(F)F)CO1 (stereo not drawn) [II-54]
- B: bulrush, herbicidal effect (evaluation scale 0-5) (bulrush [1]): 5 (mortality of 90% or above (nearly complete death))
- C: ducksalad, herbicidal effect (evaluation scale 0-5) (ducksalad [2]): 5 (mortality of 90% or above (nearly complete death))
- A: barnyardgrass, herbicidal effect (evaluation scale 0-5) (barnyardgrass [3]): 5 (mortality of 90% or above (nearly complete death))
- M: posumbu knotweed, herbicidal effect (evaluation scale 0-5) (posumbu knotweed [4]): 5 (mortality of 90% or above (nearly complete death))
- H: Italian ryegrass, herbicidal effect (evaluation scale 0-5) (Italian ryegrass [5]): 5 (mortality of 90% or above (nearly complete death))
- E: giant foxtail, herbicidal effect (evaluation scale 0-5) (giant foxtail [6]): 5 (mortality of 90% or above (nearly complete death))
- J: common ragweed, herbicidal effect (evaluation scale 0-5) (common ragweed [7]): 4 (mortality of at least 70% and less than 90%)
- L: common lambsquater, herbicidal effect (evaluation scale 0-5) (common lambsquater [8]): 3 (mortality of at least 40% and less than 70%)
- A: barnyardgrass, herbicidal effect (evaluation scale 0-5) (barnyardgrass [9]): 5 (mortality of 90% or above (nearly complete death))
- G: water foxtail, herbicidal effect (evaluation scale 0-5) (water foxtail [10]): 5 (mortality of 90% or above (nearly complete death))
- N: common chickweed, herbicidal effect (evaluation scale 0-5) (common chickweed [11]): 5 (mortality of 90% or above (nearly complete death))
- K: redroot pigweed, herbicidal effect (evaluation scale 0-5) (redroot pigweed [12]): 3 (mortality of at least 40% and less than 70%)
- D: large crabgrass, herbicidal effect (evaluation scale 0-5) (large crabgrass [13]): 5 (mortality of 90% or above (nearly complete death))
- I: velvetleaf, herbicidal effect (evaluation scale 0-5) (velvetleaf [14]): 5 (mortality of 90% or above (nearly complete death))
- B: bulrush, herbicidal effect (evaluation scale 0-5) (bulrush [15]): 5 (mortality of 90% or above (nearly complete death))
- C: ducksalad, herbicidal effect (evaluation scale 0-5) (ducksalad [16]): 5 (mortality of 90% or above (nearly complete death))
- A: barnyardgrass, herbicidal effect (evaluation scale 0-5) (barnyardgrass [17]): 5 (mortality of 90% or above (nearly complete death))
- a: transplanted rice, effect on crop (evaluation scale 0-5) (transplanted rice): 0 (mortality of less than 5% (almost ineffective))
- M: posumbu knotweed, herbicidal effect (posumbu knotweed [18]; three weeks after application): 2 (mortality of at least 20% and less than 40%)
- H: Italian ryegrass, herbicidal effect (Italian ryegrass [19]; three weeks after application): 5 (mortality of 90% or above (nearly complete death))
- E: giant foxtail, herbicidal effect (giant foxtail [20]; three weeks after application): 5 (mortality of 90% or above (nearly complete death))
- J: common ragweed, herbicidal effect (common ragweed [21]; three weeks after application): 4 (mortality of at least 70% and less than 90%)
- L: common lambsquater, herbicidal effect (common lambsquater [22]; three weeks after application): 2 (mortality of at least 20% and less than 40%)
- A: barnyardgrass, herbicidal effect (barnyardgrass [23]; three weeks after application): 5 (mortality of 90% or above (nearly complete death))
- G: water foxtail, herbicidal effect (water foxtail [24]; three weeks after application): 5 (mortality of 90% or above (nearly complete death))
- N: common chickweed, herbicidal effect (common chickweed [25]; three weeks after application): 4 (mortality of at least 70% and less than 90%)
- K: redroot pigweed, herbicidal effect (redroot pigweed [26]; three weeks after application): 1 (mortality of at least 5% and less than 20%)
- O: beadstraw, herbicidal effect (beadstraw; three weeks after application): 4 (mortality of at least 70% and less than 90%)
- D: large crabgrass, herbicidal effect (large crabgrass [27]; three weeks after application): 4 (mortality of at least 70% and less than 90%)
- I: velvetleaf, herbicidal effect (velvetleaf [28]; three weeks after application): 5 (mortality of 90% or above (nearly complete death))

SMILES: CCC1CON(Cc2ccccc2N(C(=O)OCCCl)S(=O)(=O)C(F)(F)F)C(=O)O1 (stereo not drawn) [III-7]
- B: bulrush, herbicidal effect (evaluation scale 0-5) (bulrush [1]): 5 (mortality of 90% or above (nearly complete death))
- C: ducksalad, herbicidal effect (evaluation scale 0-5) (ducksalad [2]): 5 (mortality of 90% or above (nearly complete death))
- A: barnyardgrass, herbicidal effect (evaluation scale 0-5) (barnyardgrass [3]): 5 (mortality of 90% or above (nearly complete death))
- herbicidal effect, M: posumbu knotweed (posumbu knotweed [4]): 4 (mortality of at least 70% and less than 90%)
- herbicidal effect, H: Italian ryegrass (Italian ryegrass [5]): 4 (mortality of at least 70% and less than 90%)
- herbicidal effect, E: giant foxtail (giant foxtail [6]): 5 (mortality of 90% or above (nearly complete death))
- herbicidal effect, J: common ragweed (common ragweed [7]): 4 (mortality of at least 70% and less than 90%)
- herbicidal effect, L: common lambsquater (common lambsquater [8]): 4 (mortality of at least 70% and less than 90%)
- herbicidal effect, A: barnyardgrass (barnyardgrass [9]): 5 (mortality of 90% or above (nearly complete death))
- herbicidal effect, G: water foxtail (water foxtail [10]): 5 (mortality of 90% or above (nearly complete death))
- herbicidal effect, N: common chickweed (common chickweed [11]): 5 (mortality of 90% or above (nearly complete death))
- herbicidal effect, K: redroot pigweed (redroot pigweed [12]): 1 (mortality of at least 5% and less than 20%)
- herbicidal effect, D: large crabgrass (large crabgrass [13]): 5 (mortality of 90% or above (nearly complete death))
- herbicidal effect, I: velvetleaf (velvetleaf [14]): 0 (mortality of less than 5% (almost ineffective))
- B: bulrush, herbicidal effect (evaluation scale 0-5) (bulrush [15]): 5 (mortality of 90% or above (nearly complete death))
- C: ducksalad, herbicidal effect (evaluation scale 0-5) (ducksalad [16]): 5 (mortality of 90% or above (nearly complete death))
- A: barnyardgrass, herbicidal effect (evaluation scale 0-5) (barnyardgrass [17]): 5 (mortality of 90% or above (nearly complete death))
- a: transplanted rice, effect on crop (evaluation scale 0-5) (transplanted rice): 0 (mortality of less than 5% (almost ineffective))
- M: posumbu knotweed, herbicidal effect (posumbu knotweed [18]; [29]): 0 (mortality of less than 5% (almost ineffective))
- H: Italian ryegrass, herbicidal effect (Italian ryegrass [19]; [29]): 0 (mortality of less than 5% (almost ineffective))
- E: giant foxtail, herbicidal effect (giant foxtail [20]; [29]): 3 (mortality of at least 40% and less than 70%)
- J: common ragweed, herbicidal effect (common ragweed [21]; [29]): 4 (mortality of at least 70% and less than 90%)
- L: common lambsquater, herbicidal effect (common lambsquater [22]; [29]): 4 (mortality of at least 70% and less than 90%)
- A: barnyardgrass, herbicidal effect (barnyardgrass [23]; [29]): 5 (mortality of 90% or above (nearly complete death))
- G: water foxtail, herbicidal effect (water foxtail [24]; [29]): 5 (mortality of 90% or above (nearly complete death))
- N: common chickweed, herbicidal effect (common chickweed [25]; [29]): 3 (mortality of at least 40% and less than 70%)
- K: redroot pigweed, herbicidal effect (redroot pigweed [26]; [29]): 3 (mortality of at least 40% and less than 70%)
- O: beadstraw, herbicidal effect (beadstraw; [29]): 2 (mortality of at least 20% and less than 40%)
- D: large crabgrass, herbicidal effect (large crabgrass [27]; [29]): 3 (mortality of at least 40% and less than 70%)
- I: velvetleaf, herbicidal effect (velvetleaf [28]; [29]): 0 (mortality of less than 5% (almost ineffective))
